These results are taken from US20210386706A1, “METHODS FOR THE TREATMENT OF SCLERODERMA” (Arena Pharmaceuticals, Inc., priority 2018, published 2021).

Bounds are passed on as bounds.

In one experiment the target is S1P5 (Homo sapiens, UniProt Q9H228). The experiment is described as follows: β-arrestin assay S1P5. It counts as cell-based.
Another experiment addresses S1P2 (Homo sapiens, UniProt O95136). The experiment in a line: β-arrestin assay S1P2. The format is cell-based.
In experiment [1] the target is T1, S1P1 (Homo sapiens, UniProt P21453). The experiment is described as follows: cAMP assay. It counts as cell-based. The note with it: read-out: ECK, cAMP. (Cyclic AMP is a second messenger, typically raised through Gs and lowered through Gi signalling.)
The test system of experiment [2] is bleomycin-induced skin fibrosis. The experiment is described as follows: bleomycin-induced rodent model of skin fibrosis. The note with it: mice, PO QD. The format is in vivo, male C57BL/6 mice. The method, then:
Compound 1 was evaluated in a bleomycin-induced rodent model of skin fibrosis. Skin fibrosis was induced in male C57BL/6 mice (6-7 weeks old; 20-25 g) with bleomycin injections at a concentration of 0.5 mg/ml via subcutaneous (SC) route. The mice received 100 μl of bleomycin at 0.5 mg/ml dissolved in PBS every other day for 21 days. The following treatments were randomly assigned: 1.) sham+vehicle (10% HBPCD/saline) per oral (PO) once daily (QD); 2.) bleomycin+vehicle (10% HBPCD/saline) PO QD; 3.) bleomycin+1 mg/kg Compound 1 PO QD; 4.) bleomycin+3 mg/kg Compound 1 PO QD; 5.) bleomycin+1 mg/kg FTY720 PO 3×/week; 6.) bleomycin+90 mg/kg FTY720 intraperitoneal (IP) QD (FIG. 1). Skin tissue was harvested post-mortem, with half of the biopsy specimen fixed in 4% wt/vol. paraformaldehyde for histology and the other half snap frozen for collagen analysis (hydroxyproline assay). Histological sections (4 μm) were cut from paraffin-embedded PFA-fixed lesional skin tissue. Sections were stained with haematoxylin and eosin (H&E) and Masson's Trichrome. Images were captured at ×100 microscopic magnification for histological dermal thickness determination. Collagen deposition (FIG. 2A), dermal thickness (FIG. 2B), tissue sections (FIG. 2C), dermal fibrosis (FIG. 3A), inflammation (FIG. 3B), and average epidermal thickness (FIG. 3C) were evaluated.

The target of a further experiment is S1P3 (Homo sapiens, UniProt Q99500). The experiment in a line: β-arrestin assay S1P3. The format is cell-based.
In another experiment the test system is lymphocytes. The experiment is described as follows: single ascending dose and multiple ascending dose studies in healthy subjects. It counts as in vivo.
The target in the next experiment is T2, S1P4 (Homo sapiens, UniProt O95977).
T2 sequence (O95977 1-384): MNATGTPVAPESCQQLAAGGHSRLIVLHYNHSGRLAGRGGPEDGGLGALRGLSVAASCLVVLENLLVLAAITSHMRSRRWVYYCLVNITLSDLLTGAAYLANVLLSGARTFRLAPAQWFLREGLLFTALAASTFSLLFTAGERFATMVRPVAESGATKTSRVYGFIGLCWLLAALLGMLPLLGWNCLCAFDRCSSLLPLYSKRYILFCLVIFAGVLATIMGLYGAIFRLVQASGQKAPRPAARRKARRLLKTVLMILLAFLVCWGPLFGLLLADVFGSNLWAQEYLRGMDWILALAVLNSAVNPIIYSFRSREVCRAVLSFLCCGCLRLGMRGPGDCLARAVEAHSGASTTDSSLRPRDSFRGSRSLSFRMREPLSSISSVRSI
The experiment in a line: β-arrestin assay S1P4. It counts as cell-based.

Experiment [3] concerns the target T1, S1P1. The experiment in a line: β-arrestin assay S1P1. The format is cell-based.

T1 sequence (P21453 whole entry): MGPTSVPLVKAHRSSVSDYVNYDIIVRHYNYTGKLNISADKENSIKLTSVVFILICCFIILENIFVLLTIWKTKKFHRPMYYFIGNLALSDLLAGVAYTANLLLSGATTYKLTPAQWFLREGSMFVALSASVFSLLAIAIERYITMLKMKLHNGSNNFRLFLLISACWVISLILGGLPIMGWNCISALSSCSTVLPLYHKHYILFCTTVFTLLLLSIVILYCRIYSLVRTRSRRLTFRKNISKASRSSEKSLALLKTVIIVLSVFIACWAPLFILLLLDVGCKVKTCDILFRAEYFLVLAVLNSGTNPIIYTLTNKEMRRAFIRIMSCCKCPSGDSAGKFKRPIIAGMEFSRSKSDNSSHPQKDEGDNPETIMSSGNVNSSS
Sequence of S1P2 (O95136 whole entry): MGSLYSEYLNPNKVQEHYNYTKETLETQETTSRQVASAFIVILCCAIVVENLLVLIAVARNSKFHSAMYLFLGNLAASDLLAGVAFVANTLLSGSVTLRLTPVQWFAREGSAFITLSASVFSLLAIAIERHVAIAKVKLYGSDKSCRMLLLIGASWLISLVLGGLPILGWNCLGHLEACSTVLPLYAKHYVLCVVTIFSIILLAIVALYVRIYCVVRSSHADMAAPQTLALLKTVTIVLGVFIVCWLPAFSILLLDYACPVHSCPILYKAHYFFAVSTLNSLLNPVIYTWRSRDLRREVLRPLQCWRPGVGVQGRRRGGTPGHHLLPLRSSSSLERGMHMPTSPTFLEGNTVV
Sequence of S1P5 (Q9H228 whole entry): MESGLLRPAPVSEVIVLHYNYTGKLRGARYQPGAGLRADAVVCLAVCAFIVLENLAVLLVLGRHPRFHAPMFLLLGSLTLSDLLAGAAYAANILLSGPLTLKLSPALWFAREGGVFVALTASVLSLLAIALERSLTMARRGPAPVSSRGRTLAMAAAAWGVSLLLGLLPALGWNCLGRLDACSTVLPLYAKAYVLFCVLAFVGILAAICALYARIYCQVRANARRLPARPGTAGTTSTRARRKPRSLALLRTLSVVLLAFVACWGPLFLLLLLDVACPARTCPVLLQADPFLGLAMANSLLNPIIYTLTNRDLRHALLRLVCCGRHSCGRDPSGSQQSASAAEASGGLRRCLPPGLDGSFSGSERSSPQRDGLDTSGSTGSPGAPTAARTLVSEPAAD
Sequence of S1P3 (Q99500 whole entry): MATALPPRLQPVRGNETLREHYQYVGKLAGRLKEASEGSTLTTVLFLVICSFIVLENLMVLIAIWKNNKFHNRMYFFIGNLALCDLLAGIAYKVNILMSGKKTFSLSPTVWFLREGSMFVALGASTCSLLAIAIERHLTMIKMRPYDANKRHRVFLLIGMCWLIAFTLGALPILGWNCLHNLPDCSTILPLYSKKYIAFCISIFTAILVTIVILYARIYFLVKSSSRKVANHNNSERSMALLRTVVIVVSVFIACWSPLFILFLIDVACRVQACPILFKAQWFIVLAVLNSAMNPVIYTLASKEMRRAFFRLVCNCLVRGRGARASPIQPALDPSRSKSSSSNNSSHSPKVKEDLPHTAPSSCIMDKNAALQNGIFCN

In the case of `O=C(O)C[C@H]1CCc2c1[nH]c1ccc(OCc3ccc(C4CCCC4)c(C(F)(F)F)c3)cc21` [Compound 1, (R)-2-(7-(4-cyclopentyl-3-(trifluoromethyl)benzyloxy)-1,2,3,4-tetrahydrocyclopenta[b]indol-3-yl)acetic acid], the EC50 was 24.4 nM at S1P5; > 10000 nM on S1P2; 0.093 nM on S1P1 [1]; > 10000 nM on S1P3; 147 nM on S1P4; 6.1 nM at S1P1 [3]. Besides, in experiment [2] (histology, FIG. 2B), the dermal thickening entry is listed as “significantly reduced”. Also, in experiment [2] (hydroxyproline assay, FIG. 2A), the collagen deposition result is “significantly reduced”. Besides, the lymphocyte lowering result with lymphocytes is listed as “demonstrated the lymphocyte lowering capabilities”.
